pIC50, pKi: −log10 of the molar value. In brackets after ≈: the same amount, converted by molar mass. Activity calls are given as the source filed them. The calls are words filed in the database; no cut-off is given here.
Key:
[1] = target: T1, Inosine-5'-monophosphate dehydrogenase (Bacillus anthracis, UniProt A0A6L8P2U9); assay: Inhibition of Bacillus anthracis IMPDH preincubated for 10 mins before substrate addition by spectrophotometry
[2] = Selectivity ratio of IC50 for Bacillus anthracis IMPDH to IC50 for Cryptosporidium IMPDH
[3] = target: T1, Inosine-5'-monophosphate dehydrogenase; assay: Non-competitive inhibition of Bacillus anthracis IMPDH preincubated for 10 mins before IMP substrate addition by spectrophotometry
[4] = target: T1, Inosine-5'-monophosphate dehydrogenase; assay: Non-competitive inhibition of Bacillus anthracis IMPDH preincubated for 10 mins before NAD+ substrate addition by spectrophotometry
[5] = target: T2, Inosine-5'-monophosphate dehydrogenase (Cryptosporidium parvum, UniProt Q8T6T2); assay: Non-competitive inhibition of Cryptosporidium IMPDH preincubated for 10 mins before NAD+ substrate addition by spectrophotometry
T2 sequence (Q8T6T2 whole entry): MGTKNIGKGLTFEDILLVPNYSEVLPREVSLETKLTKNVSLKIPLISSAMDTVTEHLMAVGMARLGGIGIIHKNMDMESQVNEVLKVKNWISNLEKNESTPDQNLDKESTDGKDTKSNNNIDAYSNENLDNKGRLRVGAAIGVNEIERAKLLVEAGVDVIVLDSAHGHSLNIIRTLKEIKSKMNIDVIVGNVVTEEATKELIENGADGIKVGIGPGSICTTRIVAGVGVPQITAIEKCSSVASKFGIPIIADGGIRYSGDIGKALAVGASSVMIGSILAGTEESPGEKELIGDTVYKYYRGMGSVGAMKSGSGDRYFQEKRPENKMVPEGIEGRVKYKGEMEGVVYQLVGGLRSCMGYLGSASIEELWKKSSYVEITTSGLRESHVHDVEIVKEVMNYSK

[6] = target: T2, Inosine-5'-monophosphate dehydrogenase; assay: Un-competitive inhibition of Cryptosporidium IMPDH preincubated for 10 mins before IMP substrate addition by spectrophotometry
[7] = target: T2, Inosine-5'-monophosphate dehydrogenase; assay: Inhibition of Cryptosporidium IMPDH preincubated for 10 mins before substrate addition by spectrophotometry
Staphylococcus aureus [8] = assay: Ratio of MIC for Staphylococcus aureus ATCC 13709 Smith in presence of 0.01 % guanine to MIC for Staphylococcus aureus ATCC 13709 Smith; assay type: functional
Staphylococcus aureus [9] = assay: Antibacterial activity against Staphylococcus aureus ATCC 13709 Smith in presence of 0.01 % guanine; assay type: functional
Staphylococcus aureus [10] = assay: Antibacterial activity against Staphylococcus aureus NCTC 8325; assay type: functional
Staphylococcus aureus [11] = assay: Antibacterial activity against Staphylococcus aureus NCTC 8325 in presence of 0.01 % guanine; assay type: functional
Staphylococcus aureus [12] = assay: Ratio of MIC for Staphylococcus aureus NCTC 8325 in presence of 0.01 % guanine to MIC for Staphylococcus aureus NCTC 8325; assay type: functional
Listeria monocytogenes [13] = assay: Ratio of MIC for Listeria monocytogenes 10403S in presence of 0.01 % guanine to MIC for Listeria monocytogenes 10403S; assay type: functional
Staphylococcus aureus [14] = assay: Antibacterial activity against Staphylococcus aureus ATCC 13709 Smith; assay type: functional
Listeria monocytogenes [15] = assay: Antibacterial activity against Listeria monocytogenes 10403S; assay type: functional
Listeria monocytogenes [16] = assay: Antibacterial activity against Listeria monocytogenes 10403S in presence of 0.01 % guanine; assay type: functional
[17] = target: T2, Inosine-5'-monophosphate dehydrogenase; assay: Competitive inhibition of Cryptosporidium IMPDH preincubated for 10 mins before NAD+ substrate addition by spectrophotometry
[18] = Antibacterial activity against Bacillus anthracis Sterne 7702 in presence of 0.01 % guanine; assay type: functional, Bacillus anthracis str. Sterne
[19] = Antibacterial activity against Bacillus anthracis Sterne 7702; assay type: functional, Bacillus anthracis str. Sterne
[20] = tested on: Bacillus anthracis str. Sterne; assay: Ratio of MIC for Bacillus anthracis Sterne 7702 in presence of 0.01 % guanine to MIC for Bacillus anthracis Sterne 7702; assay type: functional

T1 sequence (A0A6L8P2U9 whole entry): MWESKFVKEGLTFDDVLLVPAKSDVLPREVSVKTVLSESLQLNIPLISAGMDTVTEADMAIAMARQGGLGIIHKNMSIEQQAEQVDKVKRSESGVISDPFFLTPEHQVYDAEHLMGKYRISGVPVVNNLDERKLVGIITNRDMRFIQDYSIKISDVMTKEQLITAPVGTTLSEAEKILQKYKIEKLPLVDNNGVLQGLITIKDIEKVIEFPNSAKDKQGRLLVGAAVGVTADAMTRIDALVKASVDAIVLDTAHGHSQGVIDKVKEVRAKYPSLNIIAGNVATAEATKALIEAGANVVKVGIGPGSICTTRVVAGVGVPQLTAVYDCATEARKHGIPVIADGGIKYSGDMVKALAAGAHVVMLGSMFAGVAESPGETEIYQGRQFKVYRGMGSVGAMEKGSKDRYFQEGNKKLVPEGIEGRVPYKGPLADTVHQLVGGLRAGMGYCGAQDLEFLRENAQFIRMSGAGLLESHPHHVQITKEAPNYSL

## C[C@H](Oc1cccc(Cl)c1Cl)C(=O)Nc1ccc2oc(-c3ccncc3)nc2c1
[1]
  pIC50: 8.00
[2]
  Ratio IC50: < 0.5

## O=C(Cn1c(-c2ccccn2)nc2ccccc21)Nc1ccc2ccccc2c1
[3]
  pKi: 6.09
[4]
  pKi: 7.36
[5]
  pKi: 7.85
[6]
  pKi: 7.89

## C[C@H](C(=O)Nc1ccc2oc(-c3ccncc3)nc2c1)c1ccccc1
[2]
  Ratio IC50: < 0.5

## CC(Oc1ccc(-c2ccccc2)cc1)C(=O)Nc1ccc(Cl)cc1 (centres undefined)
[2]
  Ratio IC50: < 0.5
[7]
  pIC50: 5.96

## C/C(=N\O)c1cccc(C(C)(C)NC(=O)Nc2ccc(Cl)c(C(=O)N3CCOCC3)c2)c1
Staphylococcus aureus [8]
  Ratio: 8
Staphylococcus aureus [9]
  MIC: > 30 µM
Staphylococcus aureus [10]
  MIC: 3.8 µM (≈ 1.74 µg/mL)
Staphylococcus aureus [11]
  MIC: 7.5 µM
Staphylococcus aureus [12]
  Ratio: 8
Listeria monocytogenes [13]
  Ratio: 8
Staphylococcus aureus [14]
  MIC: 2 µM (≈ 0.918 µg/mL)
Listeria monocytogenes [15]
  MIC: > 30 µM

## C/C(=N\O)c1cccc(C(C)(C)NC(=O)Nc2ccc(Br)cc2)c1
[3]
  pKi: 7.32
[4]
  pKi: 8.64
[5]
  pKi: 7.82
[2]
  Ratio IC50: < 0.5
[7]
  pIC50: 8.05
[6]
  pKi: 7.92

## C[C@H](Oc1cccc(Cl)c1Cl)C(=O)Nc1cccc(NC(=O)c2ccncc2)c1
[1]
  pIC50: 6.52
[2]
  Ratio IC50: < 0.5

## C/C(=N\O)c1cccc(C(C)(C)NC(=O)Nc2ccc(Cl)c(C(F)(F)F)c2)c1
[1]
  pIC50: 8.70
[2]
  Ratio IC50: < 0.5

## CC(Oc1cccc([N+](=O)[O-])c1Cl)C(=O)Nc1ccc2oc(-c3ccncc3)nc2c1 (centres undefined)
[1]
  pIC50: 7.85
[2]
  Ratio IC50: < 0.5
[7]
  pIC50: 7.31

## C[C@H](Nc1cccc(Cl)c1Cl)C(=O)Nc1ccc2oc(-c3ccncc3)nc2c1
[1]
  pIC50: 8.30
[2]
  Ratio IC50: < 0.5

## C/C(=N\O)c1cccc(C(C)(C)NC(=O)Nc2ccc(Cl)c(C(=O)N3CCN(C)CC3)c2)c1
[2]
  Ratio IC50: < 0.5
[7]
  pIC50: 6.48

## C[C@@H](Oc1cc[n+]([O-])c2ccccc12)c1cn(-c2ccc(Cl)cc2)nn1
[3]
  pKi: 7.42
Staphylococcus aureus [8]
  Ratio: 8
Staphylococcus aureus [9]
  MIC: 16 µM
Listeria monocytogenes [16]
  MIC: inactive
[4]
  pKi: 7.24
Staphylococcus aureus [10]
  MIC: 1.8 µM (≈ 0.66 µg/mL)
Staphylococcus aureus [11]
  MIC: > 30 µM
Staphylococcus aureus [12]
  Ratio: 8
Listeria monocytogenes [13]
  Ratio: 8
[17]
  pKi: 8.30
[18]
  MIC: 8 µM
[19]
  MIC: 1 µM (≈ 0.367 µg/mL)
Staphylococcus aureus [14]
  MIC: 2 µM (≈ 0.734 µg/mL)
[20]
  Ratio: 8
Listeria monocytogenes [15]
  MIC: 7.5 µM (≈ 2.75 µg/mL)
[6]
  pKi: 8.30

## C/C(=N\O)c1cccc(C(C)(C)NC(=O)Nc2ccc(Cl)c(C(N)=O)c2)c1
[3]
  pKi: 8.82
[4]
  pKi: 8.10
[5]
  pKi: 8.22
[6]
  pKi: 8.70

## C[C@@H](Oc1cccc2cnccc12)c1cn(-c2ccc(Cl)cc2)nn1
Staphylococcus aureus [8]
  Ratio: 8
Staphylococcus aureus [9]
  MIC: > 30 µM
Staphylococcus aureus [10]
  MIC: 7.5 µM (≈ 2.63 µg/mL)
Staphylococcus aureus [11]
  MIC: > 30 µM
Staphylococcus aureus [12]
  Ratio: 8
Listeria monocytogenes [13]
  Ratio: 8
[18]
  MIC: > 30 µM
[19]
  MIC: 2 µM (≈ 0.702 µg/mL)
Staphylococcus aureus [14]
  MIC: 8 µM (≈ 2.81 µg/mL)
[20]
  Ratio: 8
Listeria monocytogenes [15]
  MIC: 3.8 µM (≈ 1.33 µg/mL)

## O=C(Nc1ccc(Cl)cc1)C(Oc1cccc2ccccc12)C1CC1 (centres undefined)
[2]
  Ratio IC50: < 0.5
[7]
  pIC50: < 5.30

## CCN(CC)C(=O)c1ccc(NC(=O)NC(C)(C)c2cccc(/C(C)=N/O)c2)cc1Cl
Staphylococcus aureus [8]
  Ratio: 8
Staphylococcus aureus [9]
  MIC: > 30 µM
Staphylococcus aureus [10]
  MIC: 0.9 µM (≈ 0.4 µg/mL)
Staphylococcus aureus [11]
  MIC: > 30 µM
Staphylococcus aureus [12]
  Ratio: 8
Listeria monocytogenes [13]
  Ratio: 8
[18]
  MIC: > 30 µM
[19]
  MIC: 0.5 µM (≈ 0.222 µg/mL)
Staphylococcus aureus [14]
  MIC: 4 µM (≈ 1.78 µg/mL)
[20]
  Ratio: 8
Listeria monocytogenes [15]
  MIC: 15 µM (≈ 6.67 µg/mL)

## C[C@H](Oc1cccc2ccccc12)C(=O)Nc1ccc2oc(-c3ccncc3)nc2c1
[3]
  pKi: 7.62
[4]
  pKi: 7.77
[17]
  pKi: 7.89
[6]
  pKi: 7.19

## CC(C)C(Oc1cccc2ccccc12)C(=O)Nc1ccc(Cl)cc1 (centres undefined)
[1]
  pIC50: 6.92
[2]
  Ratio IC50: < 0.5
[7]
  pIC50: 6.15

## C[C@H](Oc1cccc(Cl)c1Cl)C(=O)Nc1ccc2nc(-c3ccncc3)oc2c1
[1]
  pIC50: 8.00
[2]
  Ratio IC50: < 0.5

## O=C(COc1cccc2ccccc12)Nc1ccc(Br)cc1
[1]
  pIC50: 6.12
[2]
  Ratio IC50: < 0.5
[7]
  pIC50: < 5.30

## Cn1nc(CC(=O)Nc2ccc3oc4c(c3c2)CCCC4)c2ccccc2c1=O
[3]
  pKi: 7.92
[4]
  pKi: 6.30
[5]
  pKi: 7.31
[6]
  pKi: 8.30

## C=C(C)c1cccc(C(C)(C)NC(=O)Nc2ccc(Cl)c(C(F)(F)F)c2)c1
[2]
  Ratio IC50: < 0.5

## C/C(=N\O)c1cccc(C(C)(C)NC(=O)Nc2ccc(Cl)c(Cl)c2)c1
[1]
  pIC50: 7.02
[2]
  Ratio IC50: < 0.5
[7]
  pIC50: 6.72

## CC(=O)c1cccc(CNC(=O)Nc2ccc(Cl)cc2)c1
[1]
  pIC50: 5.92
[2]
  Ratio IC50: < 0.5
[7]
  pIC50: < 5.30

## O=C(Nc1ccc(Cl)cc1)C(Oc1cccc2ccccc12)c1ccccc1 (centres undefined)
[1]
  pIC50: 5.62
[2]
  Ratio IC50: < 0.5
[7]
  pIC50: < 5.30

From ChEMBL document CHEMBL3351409, “Repurposing cryptosporidium inosine 5'-monophosphate dehydrogenase inhibitors as potential antibacterial agents” (ACS Med Chem Lett, 2014)
